Drawing on US7148246B2, “Cycloalkyl derivatives having bioisosteric carboxylic acid groups, processes for their preparation and their use as pharmaceuticals” (Sanofi-Aventis Deutschland GmbH, priority 2003, dated 2006), this text covers EC50 for 8 compounds.

Molecules are shown by their SMILES.

This assay addresses T1, human PPARalpha (Homo sapiens, UniProt Q07869).
T1 construct: amino acids S167–Y468; expressed in transfected cells; host or cells: HEK (human embryo kidney) cells, stably transfected with pcDNA3 carrying the fusion construct
T1 sequence (Q07869 167-468): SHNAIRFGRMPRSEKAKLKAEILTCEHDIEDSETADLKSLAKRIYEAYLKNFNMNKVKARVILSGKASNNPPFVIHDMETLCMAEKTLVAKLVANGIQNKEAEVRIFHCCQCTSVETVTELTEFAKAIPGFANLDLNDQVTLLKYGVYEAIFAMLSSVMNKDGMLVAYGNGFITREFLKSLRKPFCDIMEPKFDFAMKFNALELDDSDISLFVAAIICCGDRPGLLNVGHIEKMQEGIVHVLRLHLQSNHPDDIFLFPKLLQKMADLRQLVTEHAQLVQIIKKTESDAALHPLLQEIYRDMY
The assay is described as follows: Cellular PPARalpha assay (stably transfected HEK luciferase reporter cell line). The format is cell-based. Particulars: PPARalpha reporter cell line (HEK, GR-GAL4-humanPPARalpha-LBD), luciferase readout. The procedure: Determination of EC50 Values of PPAR Agonists in the Cellular PPARalpha Assay
The potency of substances which bind to human PPARalpha and activate in an agonistic manner is analyzed using a stably transfected HEK cell line (HEK=human embryo kidney) which is referred to here as PPARalpha reporter cell line. It contains two genetic elements, a luciferase reporter element (pdeltaM-GAL4-Luc-Zeo) and a PPARalpha fusion protein (GR-GAL4-humanPPARalpha-LBD) which mediates expression of the luciferase reporter element depending on a PPARalpha ligand. The stably and constitutively expressed fusion protein GR-GAL4-humanPPARalpha-LBD binds in the cell nucleus of the PPARalpha reporter cell line via the GAL4 protein portion to the GAL4 DNA binding motifs 5′-upstream of the luciferase reporter element which is integrated in the genome of the cell line. There is only little expression of the luciferase reporter gene without addition of a PPARalpha ligand if fatty acid-depleted fetal calf serum (cs-FCS) is used in the assay. PPARalpha ligands bind and activate the PPARalpha fusion protein and thereby bring about expression of the luciferase reporter gene. The luciferase which is formed can be detected by means of chemiluminescence via an appropriate substrate.
The PPARalpha reporter cell line was prepared in 2 stages. Firstly, the luciferase reporter element was constructed and stably transfected into HEK cells. For this purpose, five binding sites of the yeast transcription factor GAL4 (each 5′-CGGAGTACTGTCCTCCGAG-3′) (SEQ ID No.1) were cloned in 5′-upstream of a 68 bp-long minimal MMTV promoter (Genbank Accession #V01175). The minimal MMTV promoter section contains a […] and a TATA element in order to enable efficient transcription by RNA polymerase II. The cloning and sequencing of the GAL4-MMTV construct took place in analogy to the description of Sambrook J. et. al. (Molecular cloning, Cold Spring Harbor Laboratory Press, 1989). Then the complete Photinus pyralis gene (Genbank Accession #M15077) was cloned in 3′-downstream of the GAL4-MMTV element. After sequencing, the luceriferase reporter element consisting of five GAL4 binding sites, MMTV promoter and luciferase gene was recloned into a plasmid which confers zeocin resistance in order to obtain the plasmid pdeltaM-GAL4-Luc-Zeo. This vector was transfected into HEK cells in accordance with the statements in Ausubel, F. M. et al. (Current protocols in molecular biology, Vol. 1–3, John Wiley & Sons, Inc., 1995). […] In a second step, the PPARalpha fusion protein (GR-GAL4-humanPPARalpha-LBD was introduced into the stable cell clone described. For this purpose, initially the cDNA coding for the N-terminal 76 amino acids of the glucocorticoid receptor (Genbank Accession #P04150) was linked to the cDNA section coding for amino acids 1–147 of the yeast transcription factor GAL4 (Genbank Accession #P04386). The cDNA of the ligand-binding domain of the human PPARalpha receptor (amino acids S167–Y468; Genbank Accession #S74349) was cloned in at the 3′-end of this GR-GAL4 construct. The fusion construct prepared in this way (GR-GAL4-humanPPARalpha-LBD) was recloned into the plasmid pcDNA3 (from Invitrogen) in order to enable constitutive expression therein by the cytomegalovirus promoter. This plasmid was linearized with a restriction endonuclease and stably transfected into the previously described cell clone containing the luciferase reporter element. The finished PPARalpha reporter cell line which contains a luciferase reporter element and constitutively expresses the PPARalpha fusion protein (GR-GAL4-human PPARalpha-LBD) was isolated by selection with zeocin (0.5 mg/ml) and G418 (0.5 mg/ml).
The activity of PPARalpha agonists is determined in a 3-day assay which is described below: […]
For orientation: Reporter assays use an easily measured gene product as a stand-in for the process of interest.
In the case of `Cc1cccc(-c2nc(COC3CCCC(OCCC4SC(=O)NC4=O)C3)c(C)o2)c1` (stereo not drawn) [Example XXVII, 5-{2-[(cis-3-(5-Methyl-2-tolyloxazol-4-ylmethoxy)cyclohexyloxy]ethyl}thiazolidine-2,4-dione], the EC50 (as a rule, the concentration at which the effect is half-maximal) was 726 nM. The figure for `Cc1ccc(-c2nc(CO[C@@H]3CCC[C@H](/C=C4/SC(=O)NC4=O)C3)c(C)o2)cc1` (racemic) [Example XXXIV, 5-[1-[cis-3-(5-Methyl-2-tolyloxazol-4-ylmethoxy)cyclohexyl]methylidene]-thiazolidine-2,4-dione] is 114 nM; for `Cc1oc(-c2ccc(F)cc2)nc1CO[C@@H]1CCC[C@H](OCCC2SC(=O)NC2=O)C1` (relative stereo) [Example XXVI, 5-(2-{cis-3-[2-(4-Fluorophenyl)-5-methyloxazol-4-ylmethoxy]cyclohexyloxy}-ethyl)thiazolidine-2,4-dione] it is 709 nM; for `COc1ccc(S(=O)(=O)O[C@H]2CCC[C@@H](OCc3nc(-c4ccc(F)cc4)oc3C)C2)c([N+](=O)[O-])c1` (relative stereo) [Example XXI, cis-3-[2-(4-fluorophenyl)-5-methyloxazol-4-ylmethoxy]cyclohexyl 4-methoxy-2-nitrobenzenesulfonate] it is 1250 nM. `Cc1oc(-c2ccc(F)cc2)nc1CO[C@H]1CCC[C@@H](OCc2cccc([N+](=O)[O-])c2)C1` (relative stereo) [VIII, 2-(4-Fluorophenyl)-5-methyl4-[cis-3-(3-nitrobenzyloxy)cyclohexyloxy-methyl]oxazole] came in with an EC50 of 91 nM. `Cc1oc(-c2ccc(F)cc2)nc1COC1CCCC(OC/C=C2\NC(=O)NC2=O)C1` (racemic) [XXIV, 5-[2-{cis-3-[2-(4-Fluorophenyl)-5-methyloxazol-4-ylmethoxy]cyclohexyloxy}-ethylidene]imidazolidine-2,4-dione] came in with an EC50 of 227 nM. `Cc1oc(-c2ccc(F)cc2)nc1CO[C@@H]1CCC[C@H](OS(=O)(=O)c2cc([N+](=O)[O-])ccc2Cl)C1` (relative stereo) [Example XX, cis-3-[2-(4-fluorophenyl)-5-methyloxazol-4-ylmethoxy]cyclohexyl 2-chloro-5-nitrobenzenesulfonate]: the EC50 stood at 1930 nM. As to `Cc1ccc(-c2nc(COC3CCCC(CC4SC(=O)NC4=O)C3)c(C)o2)cc1` (stereo not drawn) [XXXV, 5-[cis-3-(5-Methyl-2-tolyloxazol-4-ylmethoxy)cyclohexylmethyl]thiazolidine-2,4-dione], the midpoint of the response, the EC50, lay at 187 nM.
